Measurements reported in PMC11191877, “Discovery of new Schiff bases of the disalicylic acid scaffold as DNA gyrase and topoisomerase IV inhibitors endowed with antibacterial properties” (Frontiers in Chemistry, 2024).
Converted amounts (≈) assume the structure as drawn.

Columns and labels:
[1] = system: Mycobacterium tuberculosis H37Rv; set-up: method as in Souza et al., 2007; settings: ref Souza et al., 2007; cited from earlier work
J774 macrophages = system: J774 macrophages; set-up: method as in Souza et al., 2007; settings: ref Souza et al., 2007, cited from earlier work
Candida albicans = experiment: Modified Kirby-Bauer disc diffusion (antifungal); type: cell-based
Protocol: (§1) The antimicrobial activity of compounds 5a-k was assessed using a modified Kirby-Bauer disc diffusion method ([Alkhaldi et al., 2019]; [Al-Wahaibi et al., 2021b]; [Manso et al., 2021]; [Ecevit et al., 2022]). […] Ciprofloxacin was used as a reference medication. […] Compounds 5f-k had promising antibacterial action against Gram-positive and Gram-negative bacteria, ranging from 75% to 115% of typical ciprofloxacin levels.
(§2) In addition, the synthesized compounds 5a-k were evaluated for their antifungal activity against A. flavus and C. albicans, with Fluconazole as a reference medication (Table 1). […]
(§3) incubated at 35-37 °C for 24-48 hours and yeast as Candida albicans (ATCC 7102) incubated at 30 °C for 24-48 hours and, then the diameters of the inhibition zones were measured in millimeters. Standard discs of ciprofloxacin (Antibacterial agent), Fluconazole (Antifungal agent) served as positive controls for antimicrobial activity but filter discs impregnated with 10 µl of solvent (distilled water, chloroform, DMSO) were used as a negative control. Blank paper disks (Schleicher & Schuell, Spain) with a diameter of 8.0 mm were impregnated 10µ of tested concentration of the stock solutions. When a filter paper disc impregnated with a tested chemical is placed on agar the chemical will diffuse from the disc into the agar. This diffusion will place the chemical in the agar only around the disc. The solubility of the chemical and its molecular size will determine the size of the area of chemical infiltration around the disc. If an organism is placed on the agar it will not grow in the area around the disc if it is susceptible to the chemical. This area of no growth around the disc is known as a “Zone of inhibition” or" Clear zone". For the disc diffusion, the zone diameters were measured with slipping calipers of the National Committee for Clinical Laboratory […]
(§4) Agar-based methods such as E-test and disk diffusion can be good alternatives because they are simpler and faster than broth-based methods. […]

E. coli topoisomerase IV = biological target: T1, E. coli topoisomerase IV (Escherichia coli, UniProt P20083); experiment: E. coli topoisomerase IV inhibitory assay (Inspiralis kit); type: biochemical; settings: at 1 µM of the compound
T1 construct: purchased Inspiralis
Protocol: (§5) NaCl and 50 mM MgCl2) was added to terminate the enzymatic reaction. After
(§6) Initial screening was done at 100 or 10 μM concentration
A single compound was designated with four wells followed by incubation of
After incubation, medium was removed completely from the […]

E. coli DNA gyrase = biological target: T2, E. coli DNA gyrase (Escherichia coli, UniProt P0AES6); experiment: E. coli DNA gyrase supercoiling assay (Inspiralis kit); type: biochemical; settings: at 1 µM of the compound
T2 construct: purchased Inspiralis
Protocol: The fluorescence was measured with a microplate reader (BioTek Synergy H4,
as §5, §6

Aspergillus flavus = experiment: Modified Kirby-Bauer disc diffusion (antifungal); type: cell-based; settings: Aspergillus flavus (fungi)
Protocol: as §1, §2
Standard discs of ciprofloxacin (Antibacterial agent), Fluconazole (Antifungal agent) served as positive controls for antimicrobial activity but filter discs impregnated with 10 µl of solvent (distilled water, chloroform, DMSO) were used as a negative control. Blank paper disks (Schleicher & Schuell, Spain) with a diameter of 8.0 mm were impregnated 10µ of tested concentration of the stock solutions. When a filter paper disc impregnated with a tested chemical is placed on agar the chemical will diffuse from the disc into the agar. This diffusion will place the chemical in the agar only around the disc. The solubility of the chemical and its molecular size will determine the size of the area of chemical infiltration around the disc. If an organism is placed on the agar it will not grow in the area around the disc if it is susceptible to the chemical. This area of no growth around the disc is known as a “Zone of inhibition” or" Clear zone". For the disc diffusion, the zone diameters were measured with slipping calipers of the National Committee for Clinical Laboratory […]
as §4

Pseudomonas aeruginosa [2] = experiment: Modified Kirby-Bauer disc diffusion; type: cell-based; settings: Pseudomonas aeruginosa (G−)
Protocol: as §1, with “levels. […]” for “levels.”
as §3, §4

Escherichia Coli [3] = experiment: Modified Kirby-Bauer disc diffusion; type: cell-based; settings: Escherichia Coli (G−)
Protocol: as §1, with “levels. […]” for “levels.”
as §3, §4

Bacillus subtilis [4] = experiment: Modified Kirby-Bauer disc diffusion; type: cell-based; settings: Bacillus subtilis (G+)
Protocol: as §1, with “levels. […]” for “levels.”
as §3, §4

Staph. aureus = experiment: Modified Kirby-Bauer disc diffusion; type: cell-based, Staphylococcus aureus; settings: Staph. aureus (G+)
Protocol: as §1, with “levels. […]” for “levels.”
as §3, §4

Pseudomonas aeruginosa [5] = experiment: MIC, twofold serial dilution, 96-well microtiter plate; type: cell-based; settings: Pseudomonas aeruginosa (G−)
Protocol: (§7) The antibacterial activity of compounds 5f, 5h, 5i, and 5k were evaluated using a twofold serial dilution method ([Parasa et al., 2011]), with ciprofloxacin as the reference compound. The MIC values for certain compounds were obtained through dose-response experiments. The stated values are based on a minimum of two independent experiments, with three replicates per concentration in each experiment. The experimental details can be found in Appendix A (Supplementary Material). […]
(§8) 4.2.2. Minimum inhibitory concentration assay
(§9) In 96-well microtiter plates and […] of fresh bacterial culture of a single McFarland unit overnight, a double serial dilution of each compound […] in sterile standard saline were prepared to every single source well. Ciprofloxacin antibiotic (5 mg / mL - 1) and normal saline were included as standard reference in each assay. The plates were incubated at 37 0C overnight. As an indicator of bacterial growth, […] of p-iodonitrotetrazolium violet (INT) was added to each well and incubated at 37 0C for 30 […]
(§10) min. MIC values are recorded as the lowest concentration of the extract that completely inhibited bacterial growth that is clear well. The colorless tetrazolidium salt acts as an electron accepter and is reduced to a red colored formazan product by biological activity organisms. Where bacterial growth was inhibited, the solution in the well remained clear after incubation with INT. […]
(§11) SybrGOLD in T10 buffer (10 mM Tris HCl with pH 8.0 and 1 mM EDTA) was added. […]

Escherichia Coli [6] = experiment: as above; type: cell-based; settings: Escherichia coli (G−)
Protocol: as §7, §8, §9, §10, §11

Bacillus subtilis [7] = experiment: as above; type: cell-based; settings: Bacillus subtilis (G+)
Protocol: as §7, §8, §9, §10, §11

Staphylococcus aureus = experiment: as above; type: cell-based; settings: Staphylococcus aureus (G+)
Protocol: as §7, §8, §9, §10, §11

T1 sequence (P20083 whole entry): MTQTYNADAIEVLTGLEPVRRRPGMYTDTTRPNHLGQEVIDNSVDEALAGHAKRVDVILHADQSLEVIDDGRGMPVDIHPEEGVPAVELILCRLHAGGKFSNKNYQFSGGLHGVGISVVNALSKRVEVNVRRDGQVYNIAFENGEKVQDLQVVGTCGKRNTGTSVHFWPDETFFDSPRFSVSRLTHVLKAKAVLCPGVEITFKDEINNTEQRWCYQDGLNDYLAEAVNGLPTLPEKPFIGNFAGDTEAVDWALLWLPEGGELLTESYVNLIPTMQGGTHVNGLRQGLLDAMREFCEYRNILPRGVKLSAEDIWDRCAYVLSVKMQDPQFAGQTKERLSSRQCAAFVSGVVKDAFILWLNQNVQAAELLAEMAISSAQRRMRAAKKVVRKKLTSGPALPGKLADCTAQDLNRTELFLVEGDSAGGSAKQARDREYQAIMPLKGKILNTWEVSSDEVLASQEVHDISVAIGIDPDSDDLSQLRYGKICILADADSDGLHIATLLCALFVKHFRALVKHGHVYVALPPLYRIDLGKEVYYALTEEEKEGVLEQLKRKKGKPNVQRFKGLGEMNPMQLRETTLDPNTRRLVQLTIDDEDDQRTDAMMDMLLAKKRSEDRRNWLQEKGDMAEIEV
T1 sequence (P0AFI2 whole entry, further chain): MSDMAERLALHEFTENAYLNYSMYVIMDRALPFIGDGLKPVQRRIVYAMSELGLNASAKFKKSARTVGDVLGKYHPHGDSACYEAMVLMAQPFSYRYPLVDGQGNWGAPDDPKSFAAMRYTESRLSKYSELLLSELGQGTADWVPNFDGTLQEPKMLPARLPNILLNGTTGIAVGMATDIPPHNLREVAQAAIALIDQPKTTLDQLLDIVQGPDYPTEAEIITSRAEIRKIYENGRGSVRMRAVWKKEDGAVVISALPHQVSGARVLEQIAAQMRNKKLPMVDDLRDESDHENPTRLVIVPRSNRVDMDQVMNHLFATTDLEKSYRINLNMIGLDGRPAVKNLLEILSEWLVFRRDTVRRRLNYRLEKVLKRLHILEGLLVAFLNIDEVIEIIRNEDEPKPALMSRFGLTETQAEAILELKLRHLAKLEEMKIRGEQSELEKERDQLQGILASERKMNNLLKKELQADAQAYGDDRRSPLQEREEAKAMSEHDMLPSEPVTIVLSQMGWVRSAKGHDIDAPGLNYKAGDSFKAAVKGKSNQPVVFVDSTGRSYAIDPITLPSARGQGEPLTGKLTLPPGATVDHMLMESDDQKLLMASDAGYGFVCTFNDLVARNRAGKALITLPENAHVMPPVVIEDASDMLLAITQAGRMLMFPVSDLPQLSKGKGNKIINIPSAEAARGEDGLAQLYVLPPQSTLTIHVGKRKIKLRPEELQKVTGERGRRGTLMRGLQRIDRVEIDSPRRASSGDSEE

**Q.** What does the source list for Oc1ccccc1C=Nc1ccccc1O [I, N-(salicylidene)-2-hydroxyaniline]?
**A.** MIC [1]: 8 µg/mL (≈ 37.5 µM); cytotoxic effects on J774 macrophages (J774 macrophages; 1,000 μg/mL): did not show cytotoxic effects; viable macrophage cells (J774 macrophages; J774 macrophages, 1,000 μg/mL): Over 80%

**Q.** What does the source list for “N'-((E)-4-Methylbenzylidene)-4-(4-(2-((Z)-4-methylbenzylidene)hydrazine-1-carbonyl)-3-hydroxybenzyl)-2-hydroxybenzohydrazide [Compound 5f]”?
**A.** activity as % of fluconazole (Candida albicans; C. albicans): 38%; Inhibition zone diameter (Candida albicans; Candida albicans (fungi)): 15 mm/mg Sample; RA (residual activity of the enzyme) E. Coli Topo IV (E. coli topoisomerase IV): 77%; RA (residual activity of the enzyme) E. Coli DNA gyrase (E. coli DNA gyrase): 53%; Inhibition zone diameter (Aspergillus flavus): 0.0 mm/mg Sample; Inhibition zone diameter (Pseudomonas aeruginosa [2]): 33 mm/mg Sample; Inhibition zone diameter (Escherichia Coli [3]): 33 mm/mg Sample; Inhibition zone diameter (Bacillus subtilis [4]): 37 mm/mg Sample; Inhibition zone diameter (Staph. aureus): 37 mm/mg Sample; Minimum inhibitory concentration (MIC) (Pseudomonas aeruginosa [5]): 0.125 µg/mL; Minimum inhibitory concentration (MIC) (Escherichia Coli [6]): 0.125 µg/mL; Minimum inhibitory concentration (MIC) (Bacillus subtilis [7]): 0.125 µg/mL; Minimum inhibitory concentration (MIC) (Staphylococcus aureus): 0.070 µg/mL
